The source of these data is US20100210682A1, “Repeated Dosing of TRPV1 Antagonists” (ABBOTT LABORATORIES, priority 2009, published 2010).

The experiment deals with post-operative thermal hyperalgesia. Briefly: Post-operative pain model in rats (skin incision), thermal hyperalgesia. The conditions noted are these: po; rat, p.o., acute dosing, 24 h post-injury; read-out: ED50, reversal of thermal hyperalgesia. The experiment is classed as in vivo. As for the experimental part: The response to acute thermal stimulation was determined using a commercially available paw thermal stimulator (UARDG, University of California, San Diego, Calif.). Rats were placed individually in Plexiglass cubicles mounted on a glass surface maintained at 30° C., and allowed a 30 min habituation period. A thermal stimulus, in the form of radiant heat emitted from a focused projection bulb, was then applied to the plantar surface of each hind paw. In each test session, each rat was tested in three sequential trials at approximately 5 min intervals. Paw withdrawal latencies (PWLs) were calculated as the mean of the two shortest latencies. An assay cut-off was set at 20.5 s.
As described by Brennan et al. [Brennan T J, Vandermeulen E P, Gebhart G F. Characterization of a rat model of incisional pain. Pain 1996; 64:493-501], a 1 cm longitudinal incision was made through the skin and fascia of the plantar aspect of the foot, starting 0.5 cm from the proximal edge of the heel and extending toward the toes. The plantaris muscle was elevated and incised longitudinally with origin and insertion of the muscle remaining intact. The skin was then closed with two 5-0 nylon mattress sutures. After surgery, the animals were allowed to recover and housed individually with soft bedding. Animals were tested for mechanical allodynia using von Frey hairs and for thermal hyperalgesia as described above. […]

What is called ED50 is the dose at which the effect has come halfway, by size or by number of responders. As to `CC(C)(C)c1ccc2c(c1)CC[C@H]2NC(=O)Nc1cccc2[nH]ncc12` [Compound A, N-[(1R)-5-tert-butyl-2,3-dihydro-1H-inden-1-yl]-N′-1H-indazol-4-ylurea], the ED50 worked out at 40 µmol/kg.
